Assay results published in PMC5118709, “Identification of Polo-like kinase 1 interaction inhibitors using a novel cell-based assay” (Scientific Reports, 2016).
Where “and” joins values, the source holds several entries; their conditions need not be identical. Equal entries are not always repeated.

What was measured:
Plk1-Map interaction = Plk1-Map interaction (Homo sapiens, UniProt P53350); test: BRET Plk1-Map, stable HEK293T Plk1-Luc/GFP-Map cell line; type: cell-based; set-up: cDNAs for the human full length Plk1; expressed in transfected cells
Plk1-Map interaction, sequence (P53350 whole entry): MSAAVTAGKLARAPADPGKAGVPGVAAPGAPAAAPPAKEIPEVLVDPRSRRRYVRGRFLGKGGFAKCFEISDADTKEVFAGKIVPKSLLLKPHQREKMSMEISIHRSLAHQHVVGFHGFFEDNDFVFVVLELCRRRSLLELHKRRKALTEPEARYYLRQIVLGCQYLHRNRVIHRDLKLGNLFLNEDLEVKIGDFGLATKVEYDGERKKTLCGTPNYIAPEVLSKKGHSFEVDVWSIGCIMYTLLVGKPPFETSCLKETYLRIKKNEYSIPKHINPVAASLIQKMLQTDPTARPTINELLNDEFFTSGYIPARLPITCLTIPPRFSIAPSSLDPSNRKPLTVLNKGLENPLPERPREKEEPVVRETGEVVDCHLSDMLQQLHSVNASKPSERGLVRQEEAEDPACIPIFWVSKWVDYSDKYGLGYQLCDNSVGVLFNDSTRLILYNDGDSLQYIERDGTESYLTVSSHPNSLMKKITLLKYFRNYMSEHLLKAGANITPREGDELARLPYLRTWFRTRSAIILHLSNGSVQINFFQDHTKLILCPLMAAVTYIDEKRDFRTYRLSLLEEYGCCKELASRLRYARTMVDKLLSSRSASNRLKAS
Source text: To develop a cell-based assay for the identification of Plk1 interaction inhibitors, we used Bioluminescence Resonance Energy Transfer (BRET)[42][43]. The assay monitors the interaction in HEK293T cells between Plk1 and Map205, a protein that we previously identified as an interactor of Drosophila Polo (Plk1 ortholog) on its PBD[44]. Although no ortholog of Drosophila Map205 has been found in vertebrates, this protein robustly interacts with vertebrate Plk1. […] Importantly, crystallography with zebrafish Plk1 has recently shown that Map205 nevertheless docks in the canonical phosphopeptide binding site of the PBD, with the natural phospho-mimetic Glu314 residue (Fig. 1A)[45]. In our assay, human Plk1 and a fragment of Drosophila Map205 (Map205_254-416 = Map) are respectively fused to Renilla luciferase II (Luc) and GFP10 (GFP), giving rise to energy transfer when the proteins are in close proximity (Fig. 1B). […] All combinations of Plk1 and Map tagged with Luc and GFP were tested (Supplementary Fig. S1). The Plk1-Luc/GFP-Map combination was selected because it yielded the highest BRET dynamic window. We then generated clonal stable cell lines co-expressing these two fusion proteins. These cell lines behaved very similarly to each other in BRET, and we selected one line that gave a high and reproducible BRET signal, with a Z′ score of 0.78, indicative of a robust assay for the purpose of a chemical screen (Supplementary Fig. S1).
We used our cell-based assay to screen a library of 112 983 compounds available in-house at IRIC’s High-Throughput Screening (HTS) platform (see Materials & Methods). Compounds were tested on cells in 384-well plates at concentrations between 10 μM and 25 μM, depending on their concentration in the original stocks solutions. BRET readings were taken 2 hours after treatment. Results obtained show a tight, close to normal distribution centered around zero inhibition relative to DMSO-treated controls (Fig. 1D). Compounds inducing at least 30% BRET inhibition were selected. From these, auto-fluorescent compounds and those that induced more than 90% reduction in RLucII luminescence were removed, leaving 800 primary hits, that we then re-tested using the same assay. In parallel, we tested these compounds in a control BRET assay for an unrelated pair of interacting proteins (BRAF-CRAF[46]) to exclude false-positive compounds that could reduce the BRET signal by interfering with light or by modifying the activity of GFP or Luc.
For BRET on transiently transfected cells, 48 hours after the transfection, medium was removed, cells were washed twice with PBS, and then Tyrode solution (140 mM NaCl, 2.7 mM KCl, 12 mM NaHCO3, 5.6 mM D-glucose, 0.49 mM MgCl2, 0.37 mM NaH2PO4, 25 mM HEPES, pH 7.4, where 1 mM CaCl2 was freshly added) was added to the cells. Total fluorescence was first measured using a FlexStation II microplate reader (Molecular Devices), where the GFP10 was excited at 400 nm and read at 510 nm. Then, cells were treated for 5 minutes with 2.5 μM coelenterazine 400a (Gold Technology) before reading BRET2 using the Mithras LB940 microplate reader (Berthold Technologies). BRET2 signal corresponds to the light emitted by the GFP10 acceptor constructs (515 nm ± 20 nm) divided by the light emitted by the RlucII donor constructs (400 nm ± 70 nm). Net BRET2 was calculated by subtracting the background BRET ratio of the RLucII plasmid alone from the BRET ratio obtained by the two BRET partners. The Net BRET2 was plotted according to the GFP10/RLucII ratio, which was obtained by dividing the total fluorescence by the RLucII emission.
For the high throughput chemical screen, cells were amplified and frozen as multiple 1 ml aliquots containing 25 millions of stable HEK293T Plk1-Luc/GFP-Map cells to ensure that cells at the same passage number are used during the screen. […] Five days later, cells were counted and re-suspended in Tyrode solution. […]

GST-PBD367-603 of Plk1 = GST-PBD367-603 of Plk1 (Homo sapiens, UniProt P53350); test: fluorescence polarization assay PBD-phosphopeptide
GST-PBD367-603 of Plk1, sequence (P53350 367-603): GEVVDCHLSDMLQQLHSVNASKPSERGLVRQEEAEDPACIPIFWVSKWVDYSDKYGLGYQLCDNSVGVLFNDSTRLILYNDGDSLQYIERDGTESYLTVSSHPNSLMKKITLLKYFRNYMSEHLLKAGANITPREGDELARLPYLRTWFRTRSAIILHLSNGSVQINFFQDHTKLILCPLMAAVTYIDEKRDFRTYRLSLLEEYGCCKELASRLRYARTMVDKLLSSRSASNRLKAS
Experimental: In this assay, an optimal phosphopeptide for PBD binding is coupled with a FITC fluorophore and its binding to purified recombinant PBD of Plk1 is monitored by the change in polarization of incident light.
The FP buffer was composed of 10 mM Tris pH 8.0, 50 mM NaCl, 1 mM EDTA, 20% glycerol and 0.1% NP-40. The peptide (final concentration 10 nM) was always added to the wells of non-binding, black, 384-well plates, 1 hour after the addition of the protein with the buffer (+/− treatment, 10% DMSO). […] EC65s were used to perform the competitive assays with the non-labeled peptides and with the inhibitors. FP Inhibition was calculated with the formula: 100 − [((mPsample − mPfree peptide)\(mPDMSO − mPfree peptide)) × 100]. […] (Map peptide), and corresponding non-labeled peptides are identical but without FITC in N-terminal. […] Inhibition curves were fitted with GraphPad (Prism software).

Cc1cc(C(F)(F)F)cc(S(=O)(=O)CCOC(=O)c2cccc(Cl)c2)n1 [Cpd 16, 2-((6-methyl-4-(trifluoromethyl)pyridin-2-yl)sulfonyl)ethyl 3-chlorobenzoate]
Primary screen Plk1-Map (stable) % Inihibition (Plk1-Map interaction; 10-25 μM, 2 h): 67.34% | Primary screen Plk1-Map (stable) % Quench RLuc (Plk1-Map interaction; 10-25 μM, 2 h): 86.24% | Confirmation Plk1-Map (stable) % Inihibition (Plk1-Map interaction; confirmation screen): 30.79% | Confirmation Plk1-Map (stable) % Quench RLuc (Plk1-Map interaction; confirmation screen): 81.37% | IC50 (GST-PBD367-603 of Plk1; FP - IC50 (μM), Table S3): 18.4 ± 10.2 µM | IC50 (GST-PBD367-603 of Plk1; IC50 in FP, GST-PBD367-603 38 nM, 1 h pre-incubation, FITC-phosphopeptide 10 nM, Fig. 4C): ~16 µM and 16 µM
